Literature values as cited in patent US20050245902A1, “Substance delivery device” (priority 2002, published 2005).

Tests used:
[1] = in vivo

Question: With `CC(=O)[C@H]1CC[C@H]2[C@@H]3CCC4=CC(=O)CC[C@]4(C)[C@H]3CC[C@]12C` [progesterone] as the compound, how does the water solubility read?
Answer: poorly water-soluble

Question: And the half life [1]?
Answer: 20 min
